Assay [1] deals with T1, Bacillus subtilis para-nitrobenzyl esterase variant 3-10C4 (2-19E10 substitutions + L144M), SEQ. ID. NO. 8 (Bacillus subtilis, UniProt P37967, H322R/L144M/M358V/Y370F).
T1 sequence (P37967 1-489 K23L/S59P/K95Q/L144M/N150D/S230A/G242S/K246R/S251A/A291S/H322R/V343A/M358V/Y370F/K390E/L463V): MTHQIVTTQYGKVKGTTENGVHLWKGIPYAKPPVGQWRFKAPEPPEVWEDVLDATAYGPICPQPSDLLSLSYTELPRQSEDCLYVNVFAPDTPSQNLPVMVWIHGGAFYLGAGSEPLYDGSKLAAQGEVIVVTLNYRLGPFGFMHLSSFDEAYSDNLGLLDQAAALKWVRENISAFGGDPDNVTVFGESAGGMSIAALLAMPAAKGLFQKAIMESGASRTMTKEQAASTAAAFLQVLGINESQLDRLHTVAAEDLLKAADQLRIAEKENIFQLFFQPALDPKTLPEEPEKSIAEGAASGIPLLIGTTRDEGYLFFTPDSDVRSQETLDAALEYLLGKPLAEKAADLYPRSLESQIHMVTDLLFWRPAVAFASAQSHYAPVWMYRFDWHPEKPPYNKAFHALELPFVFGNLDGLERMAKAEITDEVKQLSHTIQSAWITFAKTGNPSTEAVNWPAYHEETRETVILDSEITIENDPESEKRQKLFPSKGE
As to the kind of experiment: Kinetic assays of purified pNB esterase (ester hydrolysis). Format: biochemical. The conditions noted are these: 0.1M PIPES pH 7.0, 30° C. As to the method:
(§1) Bacteria expressing seven pNB esterases, 0-WT (SEQ. ID. NO. 2), 1-1H9, 2-19E10, 3-10C4, 4-38B9, 4-43E7, and 4-54B9, were grown in one liter cultures and the enzymes were purified. These purified enzymes were assayed for their ability to hydrolyze the different ester substrates in the presence of various concentrations of DMF. FIGS. 8a, b and c show the specific reaction rates on pNPA as a function of pNPA substrate concentration for this series of evolved variants from the four generations of mutagenesis and screening. […] The wild type enzyme outperforms 1-1H9 in purely aqueous buffer (FIG. 8a). The actual screening, however, was performed in the presence of DMF, and in 15 and 30% DMF, 1-1H9 has higher specific activity towards pNPA than wild type (FIGS. 8b and 8c). Similar trends are seen for the remaining variants assayed on this substrate. […] In 30% DMF, wild type drops still further relative to the pNB esterase variants. Variants 4-38B9 and 4-43E7, presumably by, virtue of having been screened in DMF for four rounds of mutagenesis, are the best performers in 30% DMF.
(§2) DMF dramatically increases KM while also decreasing kcat. For the LCN substrates, the mutations accumulated during directed evolution mitigate the increased KM. The effects on kcat, however, are more prominent: kcat increases more than 9-fold from wild type to 4-54B9 in 15% DMF, while KM decreases by less than a factor of two on LCN-pNB. […] At substrate concentrations […], increased specific activity will result mainly from improvements in kcat. These improvements are obviously the most useful for enzymes intended to be used for transformations in high substrate concentrations.
(§3) Kinetic assays were performed on three substrates: pNPA, LCN-pNP, and p-nitrobenzyl loracarbef nucleus (LCN-pNB). For pNPA and LCN-pNP substrates, final concentrations varying from 0.0625 mM to 16 mM and 0, 15, and 30% DMF in 0.1M PIPES (Sigma), pH 7.0 were combined with equal volumes of enzyme samples. These samples were mixed simultaneously in a 96 well plate and monitored with the 96 well plate reader. The absorbance values were recorded, linearly regressed, and then used for calculating kinetic parameters. For the LCN-pNB substrate, final concentrations varying from 0.0156 mM to 8.0 mM and 0, 15 and 30% DMF in PIPES, pH 7.0 were combined with enzyme samples in a quartz cuvette and were measured in a spectrophotometer at 289 nm. All assays were measured in triplicate.

Assay [2] concerns the target T2, Bacillus subtilis para-nitrobenzyl esterase variant 4-38B9 (3-10C4 substitutions + I60V), SEQ. ID. NO. 10 (Bacillus subtilis, UniProt P37967, H322R/I60V/L144M/M358V/Y370F).
T2 sequence (P37967 1-489 K23L/S59P/I60V/K95Q/L144M/N150D/S230A/G242S/K246R/S251A/A291S/H322R/V343A/M358V/Y370F/K390E/L463V): T1 sequence (P37967 1-489 K23L/S59P/K95Q/L144M/N150D/S230A/G242S/K246R/S251A/A291S/H322R/V343A/M358V/Y370F/K390E/L463V) with I60V
Described as above. It is filed as biochemical. The conditions noted are these: 0.1M PIPES pH 7.0, 30° C. As to the method:
as §1, §2, §3

The mark [3] stands for this setting: substrate p-nitrophenyl loracarbef nucleus, 0% DMF.
The mark [4] stands for this setting: substrate p-nitrophenyl loracarbef nucleus, 15% DMF.
The mark [5] stands for this setting: substrate p-nitrophenyl loracarbef nucleus, 30% DMF.
[6] abbreviates: substrate p-nitrobenzyl loracarbef nucleus, 0% DMF.
Setting [7] is: substrate p-nitrobenzyl loracarbef nucleus, 15% DMF.

Where a chain is given by its changes, count along the chain named.

Consider `NC1C(=O)N2C(C(=O)Oc3ccc([N+](=O)[O-])cc3)=C(Cl)CCC12` (stereo not shown) [p-nitrophenyl loracarbef nucleus], for which the kcat was 0.35 in assay [1] (setting [3]); 0.21 in assay [1] (setting [4]); 0.044 in assay [1] (setting [5]); 0.39 in assay [2] (setting [3]); 0.25 in assay [2] (setting [4]); 0.067 in assay [2] (setting [5]).
In the case of `NC1C(=O)N2C(C(=O)OCc3ccc([N+](=O)[O-])cc3)=C(Cl)CCC12` (stereo not shown) [p-nitrobenzyl loracarbef nucleus], the kcat came out at 6.53 in assay [1] (setting [6]), 1.62 in assay [1] (setting [7]), 8.51 in assay [2] (setting [6]) and 1.89 in assay [2] (setting [7]).

For the origin of these results see US5906930A, “Para-nitrobenzyl esterases with enhanced activity in aqueous and nonaqueous media” (California Institute of Technology, priority 1998, dated 1999).
